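Results reflect a 48-hour exposure of cells in 96-well plates to compound at five concentrations. The concentration for full growth arrest is given as TGI.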
Legend:
Assay in all cases: NCI tumour cell line growth inhibition, 48 h
MDA-MB-231 breast = test system: MDA-MB-231 breast
SK-OV-3 ovarian = test system: SK-OV-3 ovarian
MOLT-4 leukemia = test system: MOLT-4 leukemia
786-0 renal = test system: 786-0 renal
SK-MEL-2 melanoma = test system: SK-MEL-2 melanoma
MALME-3M melanoma = test system: MALME-3M melanoma
NCI-H522 lung = test system: NCI-H522 lung
MCF7 breast = test system: MCF7 breast
U251 CNS = test system: U251 CNS
PC-3 prostate = test system: PC-3 prostate
CAKI-1 renal = test system: CAKI-1 renal
NCI-H226 lung = test system: NCI-H226 lung
OVCAR-4 ovarian = test system: OVCAR-4 ovarian
KM12 colon = test system: KM12 colon
RPMI-8226 leukemia = test system: RPMI-8226 leukemia
CCRF-CEM leukemia = test system: CCRF-CEM leukemia
SF-295 CNS = test system: SF-295 CNS
SF-268 CNS = test system: SF-268 CNS
RXF 393 renal = test system: RXF 393 renal
EKVX NSCLC = test system: EKVX NSCLC
NCI-H23 lung = test system: NCI-H23 lung
HCT-15 colon = test system: HCT-15 colon
DU-145 prostate = test system: DU-145 prostate
HCT-116 colon = test system: HCT-116 colon
ACHN renal = test system: ACHN renal
COLO 205 colon = test system: COLO 205 colon
SK-MEL-5 melanoma = test system: SK-MEL-5 melanoma
UO-31 renal = test system: UO-31 renal
SNB-19 CNS = test system: SNB-19 CNS
UACC-257 melanoma = test system: UACC-257 melanoma
OVCAR-3 ovarian = test system: OVCAR-3 ovarian
T-47D breast = test system: T-47D breast
HCC-2998 colon = test system: HCC-2998 colon
SW-620 colon = test system: SW-620 colon
BT-549 breast = test system: BT-549 breast
NCI/ADR-RES ovarian = test system: NCI/ADR-RES ovarian
M14 melanoma = test system: M14 melanoma
OVCAR-5 ovarian = test system: OVCAR-5 ovarian
SNB-75 CNS = test system: SNB-75 CNS
SR leukemia = test system: SR leukemia
HOP-62 NSCLC = test system: HOP-62 NSCLC
HOP-92 NSCLC = test system: HOP-92 NSCLC
SF-539 CNS = test system: SF-539 CNS
LOX IMVI melanoma = test system: LOX IMVI melanoma
MDA-N = test system: MDA-N
UACC-62 melanoma = test system: UACC-62 melanoma
OVCAR-8 ovarian = test system: OVCAR-8 ovarian
A498 renal = test system: A498 renal
MDA-MB-435 = test system: MDA-MB-435
SK-MEL-28 melanoma = test system: SK-MEL-28 melanoma
HS 578T breast = test system: HS 578T breast
A549 NSCLC = test system: A549 NSCLC
IGROV1 ovarian = test system: IGROV1 ovarian
TK-10 renal = test system: TK-10 renal
HT29 colon = test system: HT29 colon
NCI-H460 lung = test system: NCI-H460 lung
SN12C renal = test system: SN12C renal
HL-60(TB) leukemia = test system: HL-60(TB) leukemia
K-562 leukemia = test system: K-562 leukemia

Measured: TGI

N=c1c2sc3nc4ccccc4n3c2ncn1Cc1ccccc1
not listed: HT29 colon | NCI-H460 lung | SN12C renal | HL-60(TB) leukemia | K-562 leukemia
> 100 µM: all other assays above

CN(C)CCCNC(=O)N/N=C/c1ccc(O)cc1
not listed: OVCAR-4 ovarian | RPMI-8226 leukemia | RXF 393 renal | EKVX NSCLC | HOP-92 NSCLC | LOX IMVI melanoma
> 100 µM: all other assays above

OCC1NC(COC2OC(CO)C(O)C(O)C2O)C(O)C(O)C1O (stereo not drawn)
not listed: SK-OV-3 ovarian | EKVX NSCLC | HOP-62 NSCLC | LOX IMVI melanoma | HS 578T breast
> 100 µM: all other assays above

C/C=C1\CC(C(=O)OCC)CCCCCCC1=O (stereo not drawn)
not listed: RPMI-8226 leukemia | OVCAR-3 ovarian | HCC-2998 colon | SR leukemia | HOP-92 NSCLC | NCI-H460 lung | K-562 leukemia
> 100 µM: all other assays above
